Source: publication PMC10418426, “A Comprehensive Technology Platform for the Rapid Discovery of Peptide Inhibitors against SARS-CoV-2 Pseudovirus Infection” (International Journal of Molecular Sciences, 2023)
Starred links: 1 amine or outer side, 2 acyl side, 3 side chain; linkers in the order of their positions; H or OH if unused. Positions of bridges follow the written chain, without caps; N, C: chain ends. Residues, ends and D or L forms follow the SMILES beside them. mXylylene = c1cc(C[*:1])cc(C[*:2])c1

Target: T1, Wuhan variant RBD-Fc / ACE2 interaction (Homo sapiens, UniProt Q9BYF1)
T1 construct: purchased RayBiotech
Assay: biochemical
Conditions: read-out: percentage of inhibition of RBD binding to ACE2

Compound: C[C@@H](O)[C@@H]1NC(=O)[C@@H]2CCCN2C(=O)[C@H](CCC(N)=O)NC(=O)[C@@H](N)CSCc2cccc(c2)CSC[C@@H](C(N)=O)NC(=O)[C@H](CCC(N)=O)NC(=O)[C@H](Cc2c[nH]c3ccccc23)NC(=O)CNC(=O)[C@H](CCCCN)NC(=O)CNC(=O)[C@H](CC(N)=O)NC1=O [c9_05] (H-CQPTNGKGWQC-NH2; linker 1-11 via mXylylene)
- inhibition at 100 µM: 78%
